The test system of one series is HCT-116. Briefly: Antiproliferative activity against human HCT-116 cells assessed as cell growth inhibition incubated for 72 hrs by MTT assay. Format: functional, cell-based. The following applies: HCT-116, 72 h. (In general: Tetrazolium dyes change colour on reduction, which living cells bring about.)
The subject of the next series is A549. In words: Antiproliferative activity against human A549 cells assessed as cell growth inhibition incubated for 72 hrs by MTT assay. Type of series: functional, cell-based. The note with it: A549, 72 h.
The subject of another series is SH-SY5Y. In words: Antiproliferative activity against human SH-SY5Y cells assessed as cell growth inhibition incubated for 72 hrs by MTT assay. Type of series: functional, cell-based.
In another series the test system is U-118-MG. Briefly: Antiproliferative activity against human U-118-MG cells assessed as cell growth inhibition incubated for 72 hrs by MTT assay. Format: functional, cell-based.
A further series has as its system CCRF-CEM. In words: Antiproliferative activity against human CCRF-CEM cells assessed as cell growth inhibition incubated for 72 hrs by MTT assay. Format: functional, cell-based.
A short description of series [1]: Antiproliferative activity against human L02 cells assessed as cell growth inhibition incubated for 72 hrs by MTT assay. Type of series: toxicity, cell-based.
The subject of series [2] is HL-60. In words: Antiproliferative activity against human HL-60 cells assessed as cell growth inhibition incubated for 72 hrs by MTT assay. Type of series: functional, cell-based. The note with it: HL-60, 72 h.
The next series concerns K562. In words: Antiproliferative activity against human K562 cells assessed as cell growth inhibition incubated for 72 hrs by MTT assay. Format: functional, cell-based. The note with it: K562, 72 h.
In series [3] the test system is HL-60. Briefly: Antitumor activity against human HL-60 cells assessed as cell growth inhibition. Format: functional, cell-based.
Series [4] is described as follows: Antitumor activity against PBMC cells (unknown origin) assessed as cell growth inhibition. Type of series: functional, cell-based. The following applies: Homo sapiens.
Series [5] can be described thus: Antitumor activity against human L02 cells assessed as cell growth inhibition. Format: toxicity, cell-based.
The subject of a further series is Bel-7402. In words: Antitumor activity against human Bel-7402 cells assessed as cell growth inhibition. Type of series: functional, cell-based.
A short description of series [6]: Selectivity index, ratio of IC50 for human L02 cells to IC50 for human CCRF-CEM cells. Type of series: toxicity. The note with it: L02 cells and CCRF-CEM cells, read-out: Selectivity Index.
Series [7] is described as follows: Selectivity index, ratio of IC50 for human HL-60 cells to IC50 for human CCRF-CEM cells.
The nature of series [8]: Selectivity index, ratio of IC50 for human K562 cells to IC50 for human CCRF-CEM cells.

Usually IC50 stands for the concentration needed to halve the response being measured.

With `C[C@@H]1CC[C@@H]2[C@]34OO[C@](C)(CC[C@@H]13)O[C@H]4O[C@]2(C)COC(=O)CCc1ccc(N(CCCl)CCCl)cc1`, the concentration for half-maximal inhibition (IC50) in the series with HCT-116 is 20.8 µM; in the series with A549, over 40 µM; in the series on SH-SY5Y, over 40 µM; in the series with U-118-MG, over 40 µM; in the series with CCRF-CEM, 8.81 µM. In addition, the IC50 at 72 h in series [1] is over 40 µM.
Turning to `C[C@H]1[C@@H](O)O[C@@H]2O[C@@]3(C)CC[C@H]4[C@H](C)CC[C@@H]1[C@@]24OO3` [ARTENIMOL], the IC50 is over 40 µM in the series with HCT-116; over 40 µM with A549; over 40 µM with SH-SY5Y; 5.13 µM in the series with CCRF-CEM; 61.2 µM in the series on HL-60 [2]; 21.8 µM with K562. The IC50 at 72 h in series [1] worked out at 24.3 µM.
Take `COc1cccc2c1C(=O)c1c(O)c3c(c(O)c1C2=O)C[C@@](O)(C(=O)CO)C[C@@H]3O[C@H]1C[C@H](N)[C@H](O)[C@H](C)O1` [DOXORUBICIN]: the figures for the IC50 with HCT-116 and with SH-SY5Y were 1.88 µM and 1.54 µM, respectively.
For the compound `C[C@@H]1CC[C@@H]2[C@]34OO[C@](C)(CC[C@@H]13)O[C@H]4O[C@]2(C)COC(=O)Cc1ccc(N(CCCl)CCCl)cc1`, the IC50 in the series on HCT-116 was 40 µM; in the series on A549 it was over 40 µM; in the series with SH-SY5Y, over 40 µM; in the series with U-118-MG, over 40 µM; in the series on CCRF-CEM it was 3.84 µM; in the series on HL-60 [2], 20.9 µM. Further, in the series on K562, the IC50 is over 100 µM. For the same compound, the IC50 at 72 h in [1] was over 40 µM.
On to `C[C@@H]1CC[C@H]2[C@@H](C)C(OC(=O)CCCc3ccc(N(CCCl)CCCl)cc3)O[C@@H]3O[C@@]4(C)CC[C@@H]1[C@]32OO4` (stereo not given in full), for which the IC50 is 12.3 µM in the series with HCT-116; 14.9 µM in the series on A549; over 40 µM in the series with SH-SY5Y; over 40 µM in the series on U-118-MG; 1.38 µM with CCRF-CEM. For the same compound, the IC50 at 72 h in series [1] was over 40 µM.
Regarding `Cc1cc(C(=O)OC2O[C@@H]3O[C@@]4(C)CC[C@H]5[C@H](C)CC[C@@H]([C@H]2C)[C@@]35OO4)ccc1N(CCCl)CCCl` (stereo not given in full), the IC50 in the series with HCT-116 was 6.72 µM; with A549 it was 7.02 µM; in the series with SH-SY5Y it was over 40 µM; with U-118-MG, over 40 µM; with CCRF-CEM it was 1.87 µM. Moreover, the IC50 at 72 h in series [1] is 5 µM.
In the case of `COC(=O)[C@H](Cc1ccc(N(CCCl)CCCl)cc1)NC(=O)CCC(=O)OCCCOCCCn1c2c(c3ccccc31)CCN1C(=O)c3ccccc3N(C)[C@H]21`, the half-inhibitory concentration (IC50) with HL-60 [3] is 0.5 µM; in [4], over 200 µM.
Take `C[C@@H]1CC[C@H]2[C@@H](C)C(OC(=O)c3ccccc3N(CCCl)CCCl)O[C@@H]3O[C@@]4(C)CC[C@@H]1[C@]32OO4` (stereo not given in full): the half-maximal inhibitory concentration (IC50) is 25.6 µM in the series with HCT-116; 8.22 µM with A549; over 40 µM in the series on SH-SY5Y; over 40 µM in the series with U-118-MG; 3.41 µM in the series on CCRF-CEM. The half-maximal inhibitory concentration (IC50) at 72 h in [1] turned out to be 8.24 µM.
As to `C[C@@H]1CC[C@@H]2[C@]34OO[C@](C)(CC[C@@H]13)O[C@H]4O[C@]2(C)COC(=O)c1ccc(N(CCCl)CCCl)cc1`, the 50% inhibitory concentration (IC50) in the series with HCT-116 was 7.96 µM; in the series on A549, 5.24 µM; with SH-SY5Y, over 40 µM; with U-118-MG it was over 40 µM; in the series with CCRF-CEM it was 4.51 µM. In series [1], the half-inhibitory concentration (IC50) at 72 h was over 40 µM.
For `C[C@@H]1CC[C@H]2[C@@H](C)C(OC(=O)Cc3ccc(N(CCCl)CCCl)cc3)O[C@@H]3O[C@@]4(C)CC[C@@H]1[C@]32OO4` (stereo not given in full), the half-maximal inhibitory concentration (IC50) was 5.89 µM in the series on HCT-116; 12.7 µM with A549; over 40 µM in the series on SH-SY5Y; over 40 µM in the series with U-118-MG; 1.57 µM in the series with CCRF-CEM; 11.2 µM with HL-60 [2]. Further, in the series with K562, the IC50 turned out to be 15.5 µM. Moreover, the half-maximal inhibitory concentration (IC50) at 72 h in series [1] amounted to 15.9 µM.
Turning to `C=C1C(=O)[C@]23[C@H](OC(=O)c4ccc(N(CCCl)CCCl)cc4)[C@H]1CC[C@H]2[C@@]12CO[C@@]3(O)[C@@H](O)[C@@H]1C(C)(C)CC[C@@H]2O`, the half-inhibitory concentration (IC50) turned out to be 4.03 µM in series [5] and 0.5 µM with Bel-7402.
As for `C[C@@H]1CC[C@@H]2[C@]34OO[C@](C)(CC[C@@H]13)O[C@H]4O[C@]2(C)COC(=O)c1cccc(N(CCCl)CCCl)c1`, the IC50 in the series with HCT-116 was 8.42 µM; with A549, over 40 µM; in the series with SH-SY5Y, over 40 µM; in the series on U-118-MG it was 22.1 µM; with CCRF-CEM, over 40 µM. Further, in [1], the 50% inhibitory concentration (IC50) at 72 h amounted to 32 µM.
Consider `C[C@@H]1CC[C@H]2[C@@H](C)C(OC(=O)c3cccc(N(CCCl)CCCl)c3)O[C@@H]3O[C@@]4(C)CC[C@@H]1[C@]32OO4` (stereo not given in full), for which the IC50 in the series on A549 is 3.24 µM; in the series on SH-SY5Y it was over 40 µM; with U-118-MG it was over 40 µM; in the series on CCRF-CEM, over 40 µM. In [1], the IC50 at 72 h is over 40 µM.
As for `C[C@@H]1CC[C@H]2[C@@H](C)C(OC(=O)c3ccc(N(CCCl)CCCl)c(F)c3)O[C@@H]3O[C@@]4(C)CC[C@@H]1[C@]32OO4` (stereo not given in full), the 50% inhibitory concentration (IC50) is 4.19 µM in the series on HCT-116; 8.59 µM in the series on A549; over 40 µM in the series on SH-SY5Y; over 40 µM in the series with U-118-MG; 24.7 µM in the series with CCRF-CEM. Also, the IC50 at 72 h in series [1] is over 40 µM.
Consider `Cc1cc(C(=O)OC[C@@]2(C)O[C@@H]3O[C@@]4(C)CC[C@H]5[C@H](C)CC[C@@H]2[C@@]35OO4)ccc1N(CCCl)CCCl`, for which the IC50 was 4.22 µM in the series on HCT-116; 7.03 µM with A549; over 40 µM with SH-SY5Y; over 40 µM with U-118-MG; 0.55 µM in the series on CCRF-CEM; 2.97 µM with HL-60 [2]. Moreover, the IC50 with K562 came to 0.589 µM. Besides, the IC50 at 72 h in series [1] worked out at 1.87 µM. Also, the selectivity ratio in series [6] came out at 3.37. The Selectivity Index in series [7] is 0.63; in series [8], 3.18.
Regarding `C[C@@H]1CC[C@@H]2[C@]34OO[C@](C)(CC[C@@H]13)O[C@H]4O[C@]2(C)COC(=O)c1ccc(N(CCCl)CCCl)c(F)c1`, the IC50 in the series with HCT-116, in the series with A549, with SH-SY5Y, in the series with U-118-MG and in the series on CCRF-CEM was over 40 µM each time. For the same compound, in series [1], the IC50 at 72 h is over 40 µM.
Consider `O=C(OCCCOc1ccc(-c2cc(=O)c3c(O)c(O)c(O)cc3o2)cc1)c1ccc(N(CCCl)CCCl)cc1`, for which the IC50 in [5] was over 50 µM.
As to `C[C@@H]1CC[C@@H]2[C@]34OO[C@](C)(CC[C@@H]13)O[C@H]4O[C@]2(C)COC(=O)c1ccccc1N(CCCl)CCCl`, the IC50 with HCT-116 was 11.8 µM; with A549 it was 5.79 µM; with SH-SY5Y it was 22.1 µM; with U-118-MG, over 40 µM; in the series with CCRF-CEM, 1.48 µM; with HL-60 [2], 0.789 µM. For the same compound, the IC50 in the series with K562 came out at 9.61 µM. In series [1], the IC50 at 72 h was found to be 7.68 µM. For the same compound, the selectivity ratio in series [6] is 5.19. Besides, the Selectivity Index in [7] is 9.73; in [8], 0.8.
`C[C@@H]1CC[C@H]2[C@@H](C)C(OC(=O)CCc3ccc(N(CCCl)CCCl)cc3)O[C@@H]3O[C@@]4(C)CC[C@@H]1[C@]32OO4` (stereo not given in full): the 50% inhibitory concentration (IC50) in the series on HCT-116 is 8.08 µM; in the series on A549 it was over 40 µM; with SH-SY5Y, over 40 µM; in the series with U-118-MG, over 40 µM; in the series on CCRF-CEM, 4.13 µM; with HL-60 [2] it was 30.4 µM. Also, the IC50 in the series with K562 turned out to be 50.2 µM. For the same compound, the IC50 at 72 h in series [1] is over 40 µM.
Regarding `C=C1C(=O)[C@@]23C(=O)O[C@H]4CCC(C)(C)[C@H]5[C@H](O)OC[C@@]45[C@@H]2CC[C@@H]1[C@H]3OC(=O)c1ccc(N(CCCl)CCCl)cc1`, the 50% inhibitory concentration (IC50) in [5] is over 100 µM.
Take `O=C(O)CCCc1ccc(N(CCCl)CCCl)cc1` [CHLORAMBUCIL]: the half-maximal inhibitory concentration (IC50) in the series with HCT-116 is over 40 µM; in the series on A549, over 40 µM; with SH-SY5Y it was over 40 µM; with U-118-MG it was over 40 µM; with CCRF-CEM, 12 µM; in the series on HL-60 [2] it was 34.4 µM. Moreover, the IC50 in the series with K562 is over 100 µM. Moreover, the selectivity ratio in series [6] stood at 8.79. For the same compound, the Selectivity Index came to 24.1 in series [7] and 1.05 in [8].
On to `C[C@@H]1CC[C@@H]2[C@]34OO[C@](C)(CC[C@@H]13)O[C@H]4O[C@]2(C)COC(=O)CCCc1ccc(N(CCCl)CCCl)cc1`, for which the IC50 in the series with HCT-116 is over 40 µM; with A549, over 40 µM; with SH-SY5Y, over 40 µM; in the series on U-118-MG it was over 40 µM; in the series with CCRF-CEM, 25.3 µM. Besides, the IC50 at 72 h in [1] is over 40 µM.

The values are drawn from ChEMBL document CHEMBL5247590, “Novel nitrogen mustard-artemisinin hybrids with potent anti-leukemia action through DNA damage and activation of GPx” (Eur J Med Chem, 2022).
